Laboratory results published in US20040116489A1, “Synthetic excitatory amino acids” (priority 2003, published 2004).

How the values were obtained:
[1] = target: T1, recombinant mGlu2 receptors (Homo sapiens, UniProt Q14416); assay: forskolin-stimulated cAMP accumulation in cells expressing mGlu2; format: cell-based; details: for IC50: antagonist: blocks agonist induced decrease in forskolin-stimulated cAMP, read-out: IC50 (nM) ± SEM mGlu2, forskolin-stimulated cAMP accumulation; for EC50: agonist: reduces cAMP accumulation to 50% of the controls, read-out: EC50 (nM) ± SEM mGlu2, forskolin-stimulated cAMP accumulation
T1 construct: expressed in transfected cells
Description: (§1) To study the functional effect of compounds of the present invention in comparison to compounds of U.S. Pat. No. 5,958,960, forskolin stimulated c-AMP production in cells expressing recombinant mGlu2 and mGlu3 receptors was determined. As mGlu2 and mGlu3 receptors are negatively coupled to adenyl cyclase, activity of an agonist decreases forskolin-stimulated accumulation of cyclic adenosine monophosphate (cAMP) and is reported as the concentration necessary to reduce C-AMP accumulation to 50% of the controls (EC50, nM). The activity of an anatgonist blocks the agonist induced decrease in forskolin-stimulated accumulation of cyclic adenosine monophosphate (cAMP) and is reported as the concentration necessary to inhibit the reduction of C-AMP accumulation to 50% of the controls (IC50, nM).

recombinant human mGluR2 = target: T2, recombinant human mGluR2 (Homo sapiens, UniProt Q14416); assay: [3H]LY341495 displacement binding, mGlu2; details: displacement of [3H]LY341495; receptors expressed in RGT cells; read-out: Ki (nM) ± SEM mGlu2, effects on [3H]LY341495 binding
T2 construct: expressed in transfected cells; host or cells: RGT cells
Description: (§2) To study the ability to affect receptor binding of compounds of the present invention in comparison to compounds of U.S. Pat. No. 5,958,960, displacement of a high affinity mGluR2 antagonist radioligand [^3H]LY341495 from recombinant human mGluR2 and human mGluR3 receptors expressed in RGT cells was determined.

[2] = target: T3, recombinant mGlu3 receptors (Homo sapiens, UniProt Q14832); assay: forskolin-stimulated cAMP accumulation in cells expressing mGlu3; format: cell-based; details: for IC50: antagonist: blocks agonist induced decrease in forskolin-stimulated cAMP, read-out: IC50 (nM) ± SEM mGlu3, forskolin-stimulated cAMP accumulation; for EC50: agonist: reduces cAMP accumulation to 50% of the controls, read-out: EC50 (nM) ± SEM mGlu3, forskolin-stimulated cAMP accumulation
T3 construct: expressed in transfected cells
Description: as §1

human mGluR3 = target: T4, human mGluR3 (Homo sapiens, UniProt Q14832); assay: [3H]LY341495 displacement binding, mGlu3; details: displacement of [3H]LY341495; receptors expressed in RGT cells; read-out: Ki (nM) ± SEM mGlu3, effects on [3H]LY341495 binding
T4 construct: expressed in transfected cells; host or cells: RGT cells
Description: as §2

T1 sequence (Q14416 19-872): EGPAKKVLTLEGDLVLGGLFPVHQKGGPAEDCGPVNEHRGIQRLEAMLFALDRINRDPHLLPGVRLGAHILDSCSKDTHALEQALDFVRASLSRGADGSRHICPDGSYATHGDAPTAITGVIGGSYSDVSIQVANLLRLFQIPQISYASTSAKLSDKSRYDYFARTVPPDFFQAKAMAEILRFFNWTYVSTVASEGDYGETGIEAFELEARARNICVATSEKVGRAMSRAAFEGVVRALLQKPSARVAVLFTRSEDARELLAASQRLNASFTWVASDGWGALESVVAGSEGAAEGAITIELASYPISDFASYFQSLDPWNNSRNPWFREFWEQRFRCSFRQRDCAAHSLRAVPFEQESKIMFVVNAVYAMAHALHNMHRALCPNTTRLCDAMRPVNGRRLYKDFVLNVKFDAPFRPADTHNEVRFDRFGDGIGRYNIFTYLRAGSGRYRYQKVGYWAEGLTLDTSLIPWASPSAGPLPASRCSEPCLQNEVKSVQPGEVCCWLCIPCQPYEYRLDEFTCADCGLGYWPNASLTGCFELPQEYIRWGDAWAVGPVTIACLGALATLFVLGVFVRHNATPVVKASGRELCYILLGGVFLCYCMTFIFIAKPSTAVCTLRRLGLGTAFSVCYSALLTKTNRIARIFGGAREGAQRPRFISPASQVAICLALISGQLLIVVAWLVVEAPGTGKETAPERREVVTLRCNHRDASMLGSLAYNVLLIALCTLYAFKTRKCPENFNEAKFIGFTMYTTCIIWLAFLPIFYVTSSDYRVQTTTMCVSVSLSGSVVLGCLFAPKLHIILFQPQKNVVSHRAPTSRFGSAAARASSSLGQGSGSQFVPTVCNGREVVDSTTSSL
T2 sequence (Q14416 19-872): as above
T3 sequence (Q14832 23-879): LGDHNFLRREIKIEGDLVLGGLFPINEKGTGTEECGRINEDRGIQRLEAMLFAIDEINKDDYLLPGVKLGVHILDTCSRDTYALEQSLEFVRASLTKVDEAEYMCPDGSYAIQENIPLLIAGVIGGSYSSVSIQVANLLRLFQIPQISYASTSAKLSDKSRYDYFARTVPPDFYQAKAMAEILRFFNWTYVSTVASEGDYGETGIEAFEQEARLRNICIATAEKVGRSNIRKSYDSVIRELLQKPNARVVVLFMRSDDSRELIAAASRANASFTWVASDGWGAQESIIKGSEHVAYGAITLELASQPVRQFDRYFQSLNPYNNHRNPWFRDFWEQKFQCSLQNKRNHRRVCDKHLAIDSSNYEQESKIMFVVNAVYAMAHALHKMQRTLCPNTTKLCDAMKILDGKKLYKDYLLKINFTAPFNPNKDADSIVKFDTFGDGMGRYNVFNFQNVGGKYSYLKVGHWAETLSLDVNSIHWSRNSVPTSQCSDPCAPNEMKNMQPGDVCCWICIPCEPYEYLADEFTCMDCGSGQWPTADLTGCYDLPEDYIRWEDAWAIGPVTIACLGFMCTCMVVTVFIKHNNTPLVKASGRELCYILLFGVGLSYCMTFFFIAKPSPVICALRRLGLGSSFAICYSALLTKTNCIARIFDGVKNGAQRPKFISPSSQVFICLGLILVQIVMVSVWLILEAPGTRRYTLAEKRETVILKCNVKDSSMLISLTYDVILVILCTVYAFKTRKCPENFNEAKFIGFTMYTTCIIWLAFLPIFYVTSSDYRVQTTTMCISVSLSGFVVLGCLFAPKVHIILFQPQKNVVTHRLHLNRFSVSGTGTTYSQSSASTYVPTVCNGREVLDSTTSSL
T4 sequence (Q14832 23-879): as above

IC50 [1] [nM]	Ki (recombinant human mGluR2) [nM]	IC50 [2] [nM]	Ki (human mGluR3) [nM]	EC50 [1] [nM]	EC50 [2] [nM]	Structure (SMILES)
4060	607 ± 10.2	9520	393 ± 17.8			N[C@@]1(C(=O)O)C[C@@H](NC(=O)c2ccccc2)[C@H]2[C@H](C(=O)O)[C@H]21 (relative stereo) [1S*, 2S*, 4R*, 5R*, 6S*) 2-Amino-4-benzoylaminobicyclo[3.1.0]hexane-2,6-dicarboxylic acid]
3220	468 ± 29	6270	408 ± 25.4			CNC(=O)N[C@@H]1C[C@@](N)(C(=O)O)[C@@H]2[C@@H](C(=O)O)[C@@H]21 (relative stereo) [(1S*, 2S*, 4R*, 5R*, 6S*) 2-Amino-4-(3-methylureido)bicyclo[3.1.0]hexane-2,6-dicarboxylic acid]
4300	638 ± 59.6	11100	399 ± 67.8			CC(=O)N[C@@H]1C[C@@](N)(C(=O)O)[C@@H]2[C@@H](C(=O)O)[C@@H]21 (relative stereo) [(1S*, 2S*, 4R*, 5R*, 6S*) 4-Acetylamino-2-aminobicyclo[3.1.0]hexane-2,6-dicarboxylic acid]
	254 ± 10.7		23 ± 2.6	426 ± 41.8	41.1 ± 11.1	CNC(=O)N[C@H]1C[C@@](N)(C(=O)O)[C@@H]2[C@@H](C(=O)O)[C@@H]21 (relative stereo) [Example 20, (1S*, 2S*, 4S*, 5R*, 6S*) 2-Amino-4-(3-methyl-ureido)-bicyclo[3.1.0]hexane-2,6-dicarboxylic acid]
	772 ± 38.8		214 ± 14.6	1350	1730	CC(=O)N[C@H]1C[C@@](N)(C(=O)O)[C@@H]2[C@@H](C(=O)O)[C@@H]21 (relative stereo) [Example 23, (1S*, 2S*, 4S*, 5R*, 6S*) 4-Acetylamino-2-amino-bicyclo[3.1.0]hexane-2,6-dicarboxylic acid]
	511 ± 89		9.54 ± 0.73	60.7 ± 1.03	18.1 ± 2.87	N[C@@]1(C(=O)O)C[C@H](NC(=O)c2ccccc2)[C@H]2[C@H](C(=O)O)[C@H]21 (relative stereo) [Example 24, (1S*, 2S*, 4S*, 5R*, 6S*) 2-Amino-4-benzoylamino-bicyclo[3.1.0]hexane-2,6-dicarboxylic acid]
